“Also recorded” adds a separate entry of the source. Like-named read-outs stand apart in the source and are kept apart here.
Assays:
[1] = molecular target: T1, Cdk2(ES) = Cdk2(F80C,C177A) (Homo sapiens, UniProt P24941, C177A/F80C); assay: quantitative irreversible tethering (qIT): rate of cysteine modification of Cdk2(ES); format: binding; details: for rate enhancement factor (REF): rate with Cdk2(ES) relative to rate with GSH, thiol 5 μM
T1 construct: GST (N, cleaved yes); made in house; host or cells: E. coli Tuner(DE3)
Procedure: Figure 2 Comparison of previous and current applications of Quantitative irreversible tethering (qIT). a) Overview of rate determination. A cysteine‐containing biomolecule is treated with covalent fragments under pseudo‐first‐order conditions. Reaction progress is followed by discrete measurement of free cysteine concentration by using the fluorogenic probe CPM, and rate constants (k obs) are derived from exponential regression analysis. b) Comparison of the reactivity profile of each fragment with the POI and GSH typically classes them as unreactive, reactive but non‐selective or reactive and selective. c) Quantification of kinetic POI/GSH selectivity facilitates hit identification. d) The observed rate of reaction between the POI and hit fragment is determined at a range of ligand concentrations by using qIT. Subsequent hyperbolic regression analysis is used to derive K i and k inact to facilitate comprehensive covSAR analysis.
Therefore, we set out to develop novel classes of electrophile sensitive kinase inhibitors using a covalent fragment approach. Accordingly, we screened a 138‐member library of diverse cysteine‐reactive fragments at 500 μM against Cdk2(ES) and GSH by using the qIT platform and monitored the kinetics of cysteine‐modification over 24 hours. […] Using three standard deviations over the geometric mean REF as the statistical cut‐off for defining hit fragments (REF >27.9) yielded two acrylamide fragments, tetrahydroquinoline 1 (REF=81) and pyrimidine S1 (REF=64) for further investigation (Figures 3c and S2). […]
D. Rate determination by qIT
Reaction-plate setup: Each well of a 96-well PCR plate was charged with 60–100 µL of target thiol (GSH or protein, 10 µM) and 4% w/v TCEP-agarose beads in 100 mM phosphate buffer (pH 7.5 or 8) and cooled to 4 °C. Reactions were started by addition of an equal volume of pre-cooled electrophile solution (1 mM, 2% DMSO) in 0.1 M phosphate buffer (final concentra-tion: thiol = 5 µM, electrophile = 0.5 mM, 2% w/v TCEP-agarose beads), with a minimum of 4 wells per plate used as DMSO/thiol only controls. After mixing, TCEP-agarose was pelleted by centrifugation (1,300 rpm, 1 min) and the plate incu-bated at 4 °C. CPM Quench: At a series of time points (typically around 0.25, 0.5, 1, 2, 6, 24, 48, 72 and 120 hours after reac-tion initiation), 3 µL aliquots of each reaction were quenched into a 384-well fluorescence plate (Corning – black, NBS) where each well was charged with 27 µL of CPM solution (1.39 µM) in 100 mM phosphate buffer (pH 7.5) (final concentration: thiol = 0.5 µM, CPM = 1.25 µM). Quenching was typically performed in duplicate and fluorescence plates were incubated at room temperature for 60 minutes before fluorescence intensity (excitation/emission: 384/470 nm) was measured on an EnVisionTM plate reader. Analysis: All analysis was performed using Prism 8.0 software (GraphPad). For each time point, the fluorescence of each reaction was normalized relative Cdk2(ES)/GSH only control = maximum signal, DMSO only = minimum signal. The normalized fluorescence for each reaction was plotted against time. A one phase exponential decay was fitted to each plot (Constraints: Y(0) > 0.8; 0 < plateau = 0), yielding a pseudo first-order rate constant.
Cdk2 mutations were introduced by PCR and cloned into pGEX6P1 Cdk2 (552), a gift from Jonathon Pines (Addgene plasmid # 61845) used to express GST-Cdk2(WT). GST-Cdk2(ES) = GST-Cdk2(F80C,C177A). All constructs were verified by se-quencing. pGEX6P1 cyclin A2 (amino acids 173-432) was generated by PCR and restriction digestion. GST-CAK1 was con-structed by PCR amplification of S.cerevisiae genomic DNA and the product cloned into pKEG-KG. All protein expression was performed using an adapted autoinduction protocol:[8] Plasmids were transformed into E. coli Tuner(DE3) and cultures grown in autoinduction media at 37 °C until OD600 = 0.9. The cultures were then incubated at 18 °C for a further 40 hours before […]

Cdk2(ES) = molecular target: T2, Cdk2(ES) (Homo sapiens, UniProt P24941, C177A/F80C); assay: intact-protein mass spectrometry of covalent modification; format: binding; details: 0.5 mM acrylamide; 2 h for acrylamide 1
T2 construct: GST (N, cleaved yes); made in house; host or cells: E. coli Tuner(DE3)
Source text: To orthogonally validate the results from the qIT assay, we undertook a mass spectrometric study to obtain a direct measurement of both the extent and site of covalent fragment modification. […] To confirm C80 as the site of modification, the 1‐Cdk2(ES) complex was digested with trypsin and the resulting peptides analysed by MALDI mass spectrometry. […] Tandem mass spectrometric analysis of this ion enabled confirmatory sequencing of the peptide and unambiguous assignment of C80 as the site of modification (Figure 4b).
See High-Throughput Kinetic Analysis for Target-Directed Covalent Ligand Discovery for full library details.4 In brief, Acryla-mide fragments were synthesized from amine precursors; 14,000 primary and secondary amines were selected from Enamine’s commercial collection with molecular weight < 250 Da, from which 235 unique Bemis-Murcko frameworks were generated.[5] […] The physiochemical properties of the final library were calculated using DataWarrior[6] and found to broadly comply with the ‘Rule of 3’ guidelines. […]
Reaction-plate setup: Each well of a 96-well PCR plate was charged with 60–100 µL of target thiol (GSH or protein, 10 µM) and 4% w/v TCEP-agarose beads in 100 mM phosphate buffer (pH 7.5 or 8) and cooled to 4 °C. […] For each time point, the fluorescence of each reaction was normalized relative Cdk2(ES)/GSH only control = maximum signal, DMSO only = minimum signal. […]

[2] = fragment 0.5 mM, Cdk2(ES) 5 μM, read-out: Cdk2(ES): kobs/[I]

Row | Compound | rate enhancement factor (REF) ([1]; fragment 0.5 mM) | covalent modification of Cdk2(ES) (Cdk2(ES)) | kinact/KI at 500 µM [1, 2] | kinact/KI at 500 µM ([1]; Cdk2(ES) (5 μM) + 6 (500 μM), Figure 6c, read-out: kobs/[I] with Cdk2(ES)) | covalent SAR by REF-based qIT analysis ([1]; compared with acrylamide 1 or parent analogue) | rate of reaction with Cdk2(ES) relative to acrylamide 1 ([1]; qIT)
1 | C=CC(=O)Nc1ccc(-c2ncccn2)cc1 [S1] | 64 | complete mono‐modification | – | – | – | –
2 | C=CC(=O)N1CCCc2cc(C(=O)OC)ccc21 [compound 1] | 81 | fully modifies; also recorded: complete mono‐modification | 1.31 M⁻¹ s⁻¹ | – | – | –
3 | C=CC(=O)N1CCN(CC)c2ccccc21 [compound 6] | – | – | 0.1 M⁻¹ s⁻¹ | 0.105 M⁻¹ s⁻¹ | maintained a similar REF | ten times more slowly than acrylamide 1
